The source of these data is patent publication US10709709B2, “Substituted carbonucleoside derivatives useful as anticancer agents” (Pfizer Inc., priority 2016, dated 2020).

The test system of assay [1] is A549 lung adenocarcinoma cells. Description: A549 proliferation assay (Cell Titer Glo). The format is cell-based. As to conditions: 7 days with compound, cell viability by Cell Titer Glo (ATP). A digest of the protocol:
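A549 cells plated overnight, then treated with nine-point 3.3-fold dilutions (final top 10 μM, 0.2% DMSO) for 7 days at 37 °C, with media and compound refreshed on day 4. Viability measured as ATP by Cell Titer Glo luminescence; IC50 from 4-parameter fit normalized to DMSO control.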
(In ATP-based viability assays light output follows the ATP content of the culture.)

Assay [2] deals with PRMT5/MEP50 protein complex (Homo sapiens (Human), UniProt O14744). Description: PRMT5 biochemical assay (3H-SAM methylation of H4(1-21) peptide, filter plate scintillation). As to conditions: 10 nM PRMT5/MEP50 complex, 200 nM H4(1-21) peptide, 1 uM SAM, 25 minute incubation at room temperature. The gist of the method:
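Human PRMT5/MEP50 complex (10 nM) methylating H4(1-21) peptide (200 nM) with 3H/unlabelled SAM (1 uM final) in pH 8.5 Tris buffer, 25 min at room temperature. Stopped with TCA, 3H-peptide captured on filter plates and scintillation-counted. IC50 from 4-parameter fit.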

Structures can show the parent of a compound that is named as a salt.

Sequence of PRMT5/MEP50 protein complex (O14744 other isoform, or with tags, fused parts or gaps): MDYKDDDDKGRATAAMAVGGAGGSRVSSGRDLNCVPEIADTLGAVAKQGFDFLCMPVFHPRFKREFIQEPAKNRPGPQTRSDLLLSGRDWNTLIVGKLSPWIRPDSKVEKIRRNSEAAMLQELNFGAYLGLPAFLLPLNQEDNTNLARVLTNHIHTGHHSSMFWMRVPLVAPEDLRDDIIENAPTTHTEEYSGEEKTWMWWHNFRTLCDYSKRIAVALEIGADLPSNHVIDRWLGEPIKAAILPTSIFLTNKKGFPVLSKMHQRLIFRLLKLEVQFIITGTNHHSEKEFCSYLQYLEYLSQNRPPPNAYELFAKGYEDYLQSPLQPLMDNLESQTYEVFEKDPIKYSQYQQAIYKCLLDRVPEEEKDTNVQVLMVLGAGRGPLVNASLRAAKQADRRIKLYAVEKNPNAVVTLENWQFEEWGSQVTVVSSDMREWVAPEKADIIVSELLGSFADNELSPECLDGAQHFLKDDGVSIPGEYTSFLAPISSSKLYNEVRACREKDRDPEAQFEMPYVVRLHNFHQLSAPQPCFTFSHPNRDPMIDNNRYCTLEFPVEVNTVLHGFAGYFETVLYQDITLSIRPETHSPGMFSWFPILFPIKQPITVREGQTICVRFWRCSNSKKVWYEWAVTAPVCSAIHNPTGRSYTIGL
Sequence of PRMT5/MEP50 protein complex (Q9BQA1 whole entry partner): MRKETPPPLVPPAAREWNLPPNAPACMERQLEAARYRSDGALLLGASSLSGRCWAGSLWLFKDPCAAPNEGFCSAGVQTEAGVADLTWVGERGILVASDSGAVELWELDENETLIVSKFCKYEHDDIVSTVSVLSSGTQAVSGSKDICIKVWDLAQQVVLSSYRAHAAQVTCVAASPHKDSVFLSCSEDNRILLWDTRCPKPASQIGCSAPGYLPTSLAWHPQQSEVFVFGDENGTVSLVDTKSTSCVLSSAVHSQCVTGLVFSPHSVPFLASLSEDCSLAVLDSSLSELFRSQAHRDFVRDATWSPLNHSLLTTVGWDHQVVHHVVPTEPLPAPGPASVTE

By IC50 is commonly meant the point on the concentration scale where inhibition reaches its midpoint. For `Cc1ncnc2c1ccn2[C@@H]1C[C@H](Oc2cc(Cl)cc3c2CNCC3)[C@@H](O)[C@H]1O` [Example 87, (1S,2S,3S,5R)-3-((6-chloro-1,2,3,4-tetrahydroisoquinolin-8-yl)oxy)-5-(4-methyl-7H-pyrrolo[2,3-d]pyrimidin-7-yl)cyclopentane-1,2-diol], the IC50 amounted to 296 nM in assay [1] (Homo sapiens, A549, 168 h) and 2 nM in assay [2].

As for `CC1CNCc2c(O[C@H]3C[C@@H](n4cc(F)c5c(N)ncnc54)[C@H](O)[C@@H]3O)cc(C(F)F)c(F)c21` (stereo partly drawn) [Example 215, (1S,2S,3R,5S)-3-(4-amino-5-fluoro-7H-pyrrolo[2,3-d]pyrimidin-7-yl)-5-((6-(difluoromethyl)-5-fluoro-4-methyl-1,2,3,4-tetrahydroisoquinolin-8-yl)oxy)cyclopentane-1,2-diol], the IC50 in assay [1] and in assay [2] was 1 nM each time.

For `Cc1ncnc2c1ccn2[C@@H]1C[C@H](Oc2cc(C#N)cc3c2CNCC3)[C@@H](O)[C@H]1O` [Example 91, 8-(((1S,2S,3S,4R)-2,3-dihydroxy-4-(4-methyl-7H-pyrrolo[2,3-d]pyrimidin-7-yl)cyclopentyl)oxy)-1,2,3,4-tetrahydroisoquinoline-6-carbonitrile], the IC50 in assay [1] (Homo sapiens, A549, 168 h) is 119 nM; in assay [2], 1 nM.

For the compound `Cc1ncc2c(F)cn([C@@H]3C[C@H](Oc4cc(Cl)cc5c4CNCC5)[C@@H](O)[C@H]3O)c2n1` [Example 175, (1S,2S,3S,5R)-3-((6-chloro-1,2,3,4-tetrahydroisoquinolin-8-yl)oxy)-5-(5-fluoro-2-methyl-7H-pyrrolo[2,3-d]pyrimidin-7-yl)cyclopentane-1,2-diol], the IC50 in assay [1] (Homo sapiens, A549, 168 h) turned out to be 3230 nM; in assay [2] it was 5 nM.

In the case of `Nc1ncnc2c1c(F)cn2[C@@H]1C[C@H](Oc2cc(F)c(F)c3c2CNCC3)[C@@H](O)[C@H]1O` [Example 103, (1S,2S,3R,5S)-3-(4-amino-5-fluoro-7H-pyrrolo[2,3-d]pyrimidin-7-yl)-5-((5,6-difluoro-1,2,3,4-tetrahydroisoquinolin-8-yl)oxy)cyclopentane-1,2-diol], the IC50 in assay [1] (Homo sapiens, A549, 168 h) was 201 nM; in assay [2] it was 1 nM.

As for `Cc1ncnc2c1ccn2[C@@H]1C[C@H](Oc2ccc(F)c3c2CNCC3C)[C@@H](O)[C@H]1O` (single isomer, unassigned) [Example 183, hydrochloride], the IC50 in assay [1] (hydrochloride) came to 136 nM; in assay [2] it was 1 nM.

For the compound `Nc1ncnc2c1c(F)cn2[C@@H]1C[C@H](Oc2cc(Br)cc3c2CNCC3)[C@@H](O)[C@H]1O` [Example 101, (1S,2S,3R,5S)-3-(4-amino-5-fluoro-7H-pyrrolo[2,3-d]pyrimidin-7-yl)-5-((6-bromo-1,2,3,4-tetrahydroisoquinolin-8-yl)oxy)cyclopentane-1,2-diol], the IC50 in assay [1] (Homo sapiens, A549, 168 h) worked out at 112 nM; in assay [2], 1 nM.

Consider `Cc1ncnc2c1ccn2[C@@H]1C[C@H](Oc2cc(F)cc3c2CNCCO3)[C@@H](O)[C@H]1O` [Example 203, (1S,2S,3S,5R)-3-((8-fluoro-2,3,4,5-tetrahydrobenzo[f][1,4]oxazepin-6-yl)oxy)-5-(4-methyl-7H-pyrrolo[2,3-d]pyrimidin-7-yl)cyclopentane-1,2-diol], for which the IC50 in assay [1] (Homo sapiens, A549, 168 h) is 677 nM; in assay [2], 1 nM.

With `Cc1cn([C@@H]2C[C@H](Oc3ccc(F)c4c3CNCC4)[C@@H](O)[C@H]2O)c2ncnc(N)c12` [Example 121, (1S,2S,3R,5S)-3-(4-amino-5-methyl-7H-pyrrolo[2,3-d]pyrimidin-7-yl)-5-((5-fluoro-1,2,3,4-tetrahydroisoquinolin-8-yl)oxy)cyclopentane-1,2-diol], the IC50 in assay [1] (Homo sapiens, A549, 168 h) is 938 nM; in assay [2], 1 nM.

`Cc1ncnc2c1ccn2[C@@H]1C[C@H]([C@H](O)c2ccc(Cl)c(F)c2)[C@@H](O)[C@H]1O` [Example 160, (1S,2R,3R,5R)-3-((S)-(4-chloro-3-fluorophenyl)(hydroxy)methyl)-5-(4-methyl-7H-pyrrolo[2,3-d]pyrimidin-7-yl)cyclopentane-1,2-diol]: the IC50 in assay [1] (Homo sapiens, A549, 168 h) is 405 nM; in assay [2], 9 nM.

Turning to `Cc1ncnc2c1c(F)cn2[C@@H]1C[C@H](Oc2cc(C#N)cc3c2CNCC3)[C@@H](O)[C@H]1O` [Example 119, 8-(((1S,2S,3S,4R)-4-(5-fluoro-4-methyl-7H-pyrrolo[2,3-d]pyrimidin-7-yl)-2,3-dihydroxycyclopentyl)oxy)-1,2,3,4-tetrahydroisoquinoline-6-carbonitrile], the IC50 stood at 556 nM in assay [1] (Homo sapiens, A549, 168 h) and 1 nM in assay [2].

Regarding `Cc1cc2c(c(O[C@H]3C[C@@H](n4cc(F)c5c(C)ncnc54)[C@H](O)[C@@H]3O)c1)CNCC2` [Example 124, (1S,2S,3R,5S)-3-(5-fluoro-4-methyl-7H-pyrrolo[2,3-d]pyrimidin-7-yl)-5-((6-methyl-1,2,3,4-tetrahydroisoquinolin-8-yl)oxy)cyclopentane-1,2-diol], the IC50 in assay [1] (Homo sapiens, A549, 168 h) was 3830 nM; in assay [2] it was 2 nM.

In the case of `Cc1ncnc2c1ccn2[C@@H]1C[C@H]([C@H](O)c2ccc(F)c(F)c2)[C@@H](O)[C@H]1O` [Example 3, (1S,2R,3R,5R)-3-[(S)-(3,4-difluorophenyl) (hydroxy)methyl]-5-(4-methyl-7H-pyrrolo[2,3-d]pyrimidin-7-yl)cyclopentane-1,2-diol], the IC50 in assay [1] (Homo sapiens, 168 h) came out at 1100 nM; in assay [2] it was 32 nM.

Regarding `Cc1ncc2c(F)cn([C@@H]3C[C@H](Oc4cc(C#N)cc5c4CNCC5)[C@@H](O)[C@H]3O)c2n1` [Example 173, 8-(((1S,2S,3S,4R)-4-(5-fluoro-2-methyl-7H-pyrrolo[2,3-d]pyrimidin-7-yl)-2,3-dihydroxycyclopentyl)oxy)-1,2,3,4-tetrahydroisoquinoline-6-carbonitrile], the IC50 in assay [1] (Homo sapiens, A549, 168 h) is 3570 nM; in assay [2], 3 nM.

For `Nc1ncnc2c1c(F)cn2[C@@H]1C[C@H](Oc2cc(C(F)(F)F)cc3c2CNCC3)[C@@H](O)[C@H]1O` [Example 104, (1S,2S,3R,5S)-3-(4-amino-5-fluoro-7H-pyrrolo[2,3-d]pyrimidin-7-yl)-5-((6-(trifluoromethyl)-1,2,3,4-tetrahydroisoquinolin-8-yl)oxy)cyclopentane-1,2-diol], the IC50 in assay [1] (Homo sapiens, A549, 168 h) stood at 460 nM; in assay [2], 1 nM.

Take `Cc1ncnc2c1ccn2[C@@H]1C[C@H](Oc2cc(C(F)F)c(F)c3c2CNCC3C)[C@@H](O)[C@H]1O` (stereo partly drawn) [Example 211, (1S,2S,3S,5R)-3-((6-(difluoromethyl)-5-fluoro-4-methyl-1,2,3,4-tetrahydroisoquinolin-8-yl)oxy)-5-(4-methyl-7H-pyrrolo[2,3-d]pyrimidin-7-yl)cyclopentane-1,2-diol]: the results for the IC50 in assay [1] and in assay [2] were 14 nM and 1 nM, respectively.

Turning to `CC1CNCc2c(O[C@H]3C[C@@H](n4cc(F)c5c(N)ncnc54)[C@H](O)[C@@H]3O)cc(C(F)F)c(F)c21` (stereo partly drawn) [Example 216, (1S,2S,3R,5S)-3-(4-amino-5-fluoro-7H-pyrrolo[2,3-d]pyrimidin-7-yl)-5-((6-(difluoromethyl)-5-fluoro-4-methyl-1,2,3,4-tetrahydroisoquinolin-8-yl)oxy)cyclopentane-1,2-diol], the values for the IC50 in assay [1] and in assay [2] were 6 nM and 1 nM, respectively.

In the case of `Nc1ncnc2c1c(F)cn2[C@@H]1C[C@H](Oc2cc(Br)c(F)c3c2CNCC3)[C@@H](O)[C@H]1O` [Example 109, (1S,2S,3R,5S)-3-(4-amino-5-fluoro-7H-pyrrolo[2,3-d]pyrimidin-7-yl)-5-((6-bromo-5-fluoro-1,2,3,4-tetrahydroisoquinolin-8-yl)oxy)cyclopentane-1,2-diol], the IC50 turned out to be 67 nM in assay [1] (Homo sapiens, A549, 168 h) and 1 nM in assay [2].

With `Cc1ncnc2c1ccn2[C@@H]1C[C@H]([C@](C)(O)c2ccc(F)cc2)[C@@H](O)[C@H]1O` [Example 19, (1S,2R,3S,5R)-3-[(1 S)-1-(4-fluorophenyl)-1-hydroxyethyl]-5-(4-methyl-7H-pyrrolo[2,3-d]pyrimidin-7-yl)cyclopentane-1,2-diol], the IC50 in assay [1] (Homo sapiens, A549, 168 h) stood at 1070 nM; in assay [2], 64 nM.

Regarding `Cc1cc2cccc(O[C@H]3C[C@@H](n4ccc5c(C)ncnc54)[C@H](O)[C@@H]3O)c2cn1` [Example 169, (1S,2S,3R,5S)-3-(4-methyl-7H-pyrrolo[2,3-d]pyrimidin-7-yl)-5-((3-methylisoquinolin-8-yl)oxy)cyclopentane-1,2-diol], the IC50 stood at 743 nM in assay [1] (Homo sapiens, A549, 168 h) and 37 nM in assay [2].

For the compound `Cc1ncnc2c1c(F)cn2[C@@H]1C[C@H](Oc2cc(F)c(F)c3c2CNCC3)[C@@H](O)[C@H]1O` [Example 177, (1S,2S,3S,5R)-3-((5,6-difluoro-1,2,3,4-tetrahydroisoquinolin-8-yl)oxy)-5-(5-fluoro-4-methyl-7H-pyrrolo[2,3-d]pyrimidin-7-yl)cyclopentane-1,2-diol], the half-maximal inhibitory concentration (IC50) in assay [1] (Homo sapiens, A549, 168 h) was 2370 nM; in assay [2], 4 nM.

Regarding `Cc1ncnc2c1ccn2[C@@H]1C[C@H](Oc2cccc3c2CNC(C)C3)[C@@H](O)[C@H]1O` (single isomer, unassigned) [Example 184], the IC50 in assay [1] (Homo sapiens, A549, 168 h) was found to be 1400 nM; in assay [2], 1 nM.

For the compound `Cc1ncnc2c1ccn2[C@@H]1C[C@H](Oc2cc(-c3cn[nH]c3)cc3c2CNCC3)[C@@H](O)[C@H]1O` [Example 165, (1S,2S,3S,5R)-3-((6-(1H-pyrazol-4-yl)-1,2,3,4-tetrahydroisoquinolin-8-yl)oxy)-5-(4-methyl-7H-pyrrolo[2,3-d]pyrimidin-7-yl)cyclopentane-1,2-diol], the IC50 was found to be 766 nM in assay [1] (Homo sapiens, A549, 168 h) and 2 nM in assay [2].
